Assay results as given in US6339042B1, “Herbicidal N-cyclohexadienyl heteroaryloxyacetamides” (American Cyanamid Co., priority 1999, dated 2002).

Experiments:
Conditions in all cases: three weeks after treatment
Alopecurus myosuroides [1] = test: Pre-emergence herbicidal evaluation, ALOMY; type: in vivo
From the text: (§1) The treated pots are then placed on greenhouse benches, watered and cared for in accordance with conventional greenhouse procedures.

Amaranthus tuberculatus [2] = test: Pre-emergence herbicidal evaluation, AMATA; type: in vivo
From the text: as §1

Echinochloa crus-galli [3] = test: Post-emergence herbicidal evaluation, ECHCG
Hordeum vulgare [4] = test: Post-emergence herbicidal evaluation, HORVW
Experimental: (§2) Each pot is examined three weeks after treatment and phytotoxicity is assessed according to the rating system set forth below.
(§3) These acetone solutions are diluted with water and the resulting formulations applied at dosage levels equivalent of about 0.4 to 0.1 kg per hectare of test compound per pot. After spraying the plants are placed on greenhouse benches and are cared for in the usual manner, commensurate with conventional greenhouse practices.

Triticum aestivum [5] = test: Post-emergence herbicidal evaluation, TRZAW
Zea mays [6] = test: Pre-emergence herbicidal evaluation, ZEAMX; type: in vivo
From the text: as §1

Lolium perenne [7] = test: Pre-emergence herbicidal evaluation, LOLPE; type: in vivo
From the text: as §1

Glycine max [8] = test: Pre-emergence herbicidal evaluation, GLXMA; type: in vivo
From the text: as §1

Triticum aestivum [9] = test: Pre-emergence herbicidal evaluation, TRZAW; type: in vivo
From the text: as §1

Amaranthus tuberculatus [10] = test: Post-emergence herbicidal evaluation, AMATA; type: in vivo
Lolium perenne [11] = test: Post-emergence herbicidal evaluation, LOLPE
Experimental: as §2, §3

Setaria viridis [12] = test: Post-emergence herbicidal evaluation, SETVI
Oryza sativum [13] = test: Pre-emergence herbicidal evaluation, ORYSA; type: in vivo
From the text: as §1

Glycine max [14] = test: Post-emergence herbicidal evaluation, GLXMA
Oryza sativum [15] = test: Post-emergence herbicidal evaluation, ORYSA
Hordeum vulgare [16] = test: Pre-emergence herbicidal evaluation, HORVW; type: in vivo
From the text: as §1

Apera spica venti [17] = test: Post-emergence herbicidal evaluation, APESV
Echinochloa crus-galli [18] = test: Pre-emergence herbicidal evaluation, ECHCG; type: in vivo
From the text: as §1

Alopecurus myosuroides [19] = test: Post-emergence herbicidal evaluation, ALOMY
Zea mays [20] = test: Post-emergence herbicidal evaluation, ZEAMX
Setaria viridis [21] = test: Pre-emergence herbicidal evaluation, SETVI; type: in vivo
From the text: as §1

Galium aparine = test: Post-emergence herbicidal evaluation, GALAP
Apera spica venti [22] = test: Pre-emergence herbicidal evaluation, APESV; type: in vivo
From the text: as §1

Structure (SMILES): CCc1nnc(OCC(=O)N(C)C2=CC(C)(C)CC(C)=C2)s1 [Example 5]
- phytotoxicity rating ALOMY (Alopecurus myosuroides [1]; 0.100 kg/ha): 3 (3 - Moderate effect)
- phytotoxicity rating ALOMY (Alopecurus myosuroides [1]; 0.200 kg/ha): 8 (8 - Approaching complete kill)
- phytotoxicity rating ALOMY (Alopecurus myosuroides [1]; 0.400 kg/ha): 9 (9 - Complete kill)
- phytotoxicity rating ALOMY (Alopecurus myosuroides [1]; 0.800 kg/ha): 9 (9 - Complete kill)
- phytotoxicity rating AMATA (Amaranthus tuberculatus [2]; 0.100 kg/ha): 0 (0 - No effect)
- phytotoxicity rating AMATA (Amaranthus tuberculatus [2]; 0.200 kg/ha): 0 (0 - No effect)
- phytotoxicity rating AMATA (Amaranthus tuberculatus [2]; 0.400 kg/ha): 1 (1 - Trace effect)
- phytotoxicity rating AMATA (Amaranthus tuberculatus [2]; 0.800 kg/ha): 3 (3 - Moderate effect)
- phytotoxicity rating ECHCG (Echinochloa crus-galli [3]; 0.100 kg/ha): 0 (0 - No effect)
- phytotoxicity rating ECHCG (Echinochloa crus-galli [3]; 0.200 kg/ha): 0 (0 - No effect)
- phytotoxicity rating ECHCG (Echinochloa crus-galli [3]; 0.400 kg/ha): 0 (0 - No effect)
- phytotoxicity rating HORVW (Hordeum vulgare [4]; 0.100 kg/ha): 0 (0 - No effect)
- phytotoxicity rating HORVW (Hordeum vulgare [4]; 0.200 kg/ha): 0 (0 - No effect)
- phytotoxicity rating HORVW (Hordeum vulgare [4]; 0.400 kg/ha): 0 (0 - No effect)
- phytotoxicity rating TRZAW (Triticum aestivum [5]; 0.100 kg/ha): 0 (0 - No effect)
- phytotoxicity rating TRZAW (Triticum aestivum [5]; 0.200 kg/ha): 0 (0 - No effect)
- phytotoxicity rating TRZAW (Triticum aestivum [5]; 0.400 kg/ha): 1 (1 - Trace effect)
- phytotoxicity rating ZEAMX (Zea mays [6]; 0.100 kg/ha): 0 (0 - No effect)
- phytotoxicity rating ZEAMX (Zea mays [6]; 0.200 kg/ha): 0 (0 - No effect)
- phytotoxicity rating ZEAMX (Zea mays [6]; 0.400 kg/ha): 0 (0 - No effect)
- phytotoxicity rating ZEAMX (Zea mays [6]; 0.800 kg/ha): 6 (6 - Herbicidal effect)
- phytotoxicity rating LOLPE (Lolium perenne [7]; 0.100 kg/ha): 5 (5 - Definite injury)
- phytotoxicity rating LOLPE (Lolium perenne [7]; 0.200 kg/ha): 5 (5 - Definite injury)
- phytotoxicity rating LOLPE (Lolium perenne [7]; 0.400 kg/ha): 5 (5 - Definite injury)
- phytotoxicity rating LOLPE (Lolium perenne [7]; 0.800 kg/ha): 7 (7 - Good herbicidal effect)
- phytotoxicity rating GLXMA (Glycine max [8]; 0.100 kg/ha): 0 (0 - No effect)
- phytotoxicity rating GLXMA (Glycine max [8]; 0.200 kg/ha): 0 (0 - No effect)
- phytotoxicity rating GLXMA (Glycine max [8]; 0.400 kg/ha): 0 (0 - No effect)
- phytotoxicity rating GLXMA (Glycine max [8]; 0.800 kg/ha): 1 (1 - Trace effect)
- phytotoxicity rating TRZAW (Triticum aestivum [9]; 0.100 kg/ha): 0 (0 - No effect)
- phytotoxicity rating TRZAW (Triticum aestivum [9]; 0.200 kg/ha): 0 (0 - No effect)
- phytotoxicity rating TRZAW (Triticum aestivum [9]; 0.400 kg/ha): 1 (1 - Trace effect)
- phytotoxicity rating TRZAW (Triticum aestivum [9]; 0.800 kg/ha): 1 (1 - Trace effect)
- phytotoxicity rating AMATA (Amaranthus tuberculatus [10]; 0.100 kg/ha): 0 (0 - No effect)
- phytotoxicity rating AMATA (Amaranthus tuberculatus [10]; 0.200 kg/ha): 0 (0 - No effect)
- phytotoxicity rating AMATA (Amaranthus tuberculatus [10]; 0.400 kg/ha): 3 (3 - Moderate effect)
- phytotoxicity rating LOLPE (Lolium perenne [11]; 0.100 kg/ha): 0 (0 - No effect)
- phytotoxicity rating LOLPE (Lolium perenne [11]; 0.200 kg/ha): 1 (1 - Trace effect)
- phytotoxicity rating LOLPE (Lolium perenne [11]; 0.400 kg/ha): 4 (4 - Injury)
- phytotoxicity rating SETVI (Setaria viridis [12]; 0.100 kg/ha): 0 (0 - No effect)
- phytotoxicity rating SETVI (Setaria viridis [12]; 0.200 kg/ha): 0 (0 - No effect)
- phytotoxicity rating SETVI (Setaria viridis [12]; 0.400 kg/ha): 0 (0 - No effect)
- phytotoxicity rating ORYSA (Oryza sativum [13]; 0.100 kg/ha): 1 (1 - Trace effect)
- phytotoxicity rating ORYSA (Oryza sativum [13]; 0.200 kg/ha): 2 (2 - Slight effect)
- phytotoxicity rating ORYSA (Oryza sativum [13]; 0.400 kg/ha): 4 (4 - Injury)
- phytotoxicity rating ORYSA (Oryza sativum [13]; 0.800 kg/ha): 5 (5 - Definite injury)
- phytotoxicity rating GLXMA (Glycine max [14]; 0.100 kg/ha): 5 (5 - Definite injury)
- phytotoxicity rating GLXMA (Glycine max [14]; 0.200 kg/ha): 5 (5 - Definite injury)
- phytotoxicity rating GLXMA (Glycine max [14]; 0.400 kg/ha): 5 (5 - Definite injury)
- phytotoxicity rating ORYSA (Oryza sativum [15]; 0.100 kg/ha): 0 (0 - No effect)
- phytotoxicity rating ORYSA (Oryza sativum [15]; 0.200 kg/ha): 1 (1 - Trace effect)
- phytotoxicity rating ORYSA (Oryza sativum [15]; 0.400 kg/ha): 1 (1 - Trace effect)
- phytotoxicity rating HORVW (Hordeum vulgare [16]; 0.100 kg/ha): 0 (0 - No effect)
- phytotoxicity rating HORVW (Hordeum vulgare [16]; 0.200 kg/ha): 2 (2 - Slight effect)
- phytotoxicity rating HORVW (Hordeum vulgare [16]; 0.400 kg/ha): 3 (3 - Moderate effect)
- phytotoxicity rating HORVW (Hordeum vulgare [16]; 0.800 kg/ha): 4 (4 - Injury)
- phytotoxicity rating APESV (Apera spica venti [17]; 0.100 kg/ha): 0 (0 - No effect)
- phytotoxicity rating APESV (Apera spica venti [17]; 0.200 kg/ha): 0 (0 - No effect)
- phytotoxicity rating APESV (Apera spica venti [17]; 0.400 kg/ha): 1 (1 - Trace effect)
- phytotoxicity rating ECHCG (Echinochloa crus-galli [18]; 0.100 kg/ha): 2 (2 - Slight effect)
- phytotoxicity rating ECHCG (Echinochloa crus-galli [18]; 0.200 kg/ha): 7 (7 - Good herbicidal effect)
- phytotoxicity rating ECHCG (Echinochloa crus-galli [18]; 0.400 kg/ha): 8 (8 - Approaching complete kill)
- phytotoxicity rating ECHCG (Echinochloa crus-galli [18]; 0.800 kg/ha): 9 (9 - Complete kill)
- phytotoxicity rating ALOMY (Alopecurus myosuroides [19]; 0.100 kg/ha): 0 (0 - No effect)
- phytotoxicity rating ALOMY (Alopecurus myosuroides [19]; 0.200 kg/ha): 2 (2 - Slight effect)
- phytotoxicity rating ALOMY (Alopecurus myosuroides [19]; 0.400 kg/ha): 7 (7 - Good herbicidal effect)
- phytotoxicity rating ZEAMX (Zea mays [20]; 0.100 kg/ha): 0 (0 - No effect)
- phytotoxicity rating ZEAMX (Zea mays [20]; 0.200 kg/ha): 0 (0 - No effect)
- phytotoxicity rating ZEAMX (Zea mays [20]; 0.400 kg/ha): 0 (0 - No effect)
- phytotoxicity rating SETVI (Setaria viridis [21]; 0.100 kg/ha): 0 (0 - No effect)
- phytotoxicity rating SETVI (Setaria viridis [21]; 0.200 kg/ha): 3 (3 - Moderate effect)
- phytotoxicity rating SETVI (Setaria viridis [21]; 0.400 kg/ha): 7 (7 - Good herbicidal effect)
- phytotoxicity rating SETVI (Setaria viridis [21]; 0.800 kg/ha): 9 (9 - Complete kill)
- phytotoxicity rating GALAP (Galium aparine; 0.100 kg/ha): 0 (0 - No effect)
- phytotoxicity rating GALAP (Galium aparine; 0.200 kg/ha): 0 (0 - No effect)
- phytotoxicity rating GALAP (Galium aparine; 0.400 kg/ha): 4 (4 - Injury)
- phytotoxicity rating APESV (Apera spica venti [22]; 0.400 kg/ha): 3 (3 - Moderate effect)
- phytotoxicity rating APESV (Apera spica venti [22]; 0.800 kg/ha): 7 (7 - Good herbicidal effect)
